The text below walks through data of patent US7101878B1 (Agouron Pharmaceuticals, Inc., priority 1998, dated 2006).

“Also recorded” adds a separate entry of the source. Where a SMILES comes first, the peptide text is derived from it. [ ]: non-standard residue; d: D form. The star is where a group is joined. dPhe(4-Cl) = N[C@H](Cc1ccc(Cl)cc1)C(=O)O; d2Nal = N[C@H](Cc1ccc2ccccc2c1)C(=O)O; Lys(iPr) = CC(C)NCCCC[C@H](N)C(=O)O; d3Pal = N[C@H](Cc1cccnc1)C(=O)O; Nicotinoyl = O=C(c1cccnc1)* Where only a bound is given, the exact number is not on record here.

Data set [1] relates to LH levels in castrated rats. As to the kind of experiment: Castrated male rat model, LH suppression. It counts as in vivo. An excerpt:
Experimental Protocol: Male Sprague-Dawley (225-250 g) rats were castrated and allowed 10 days postoperative recovery. Ten days post castration animals were instrumented with indwelling femoral venous and arterial catheters to facilitate remote infusions and blood sampling. On the day of the experiment, animals were allowed to acclimate to the procedure room while residing in their home cage. Basal blood samples were drawn from all animals. Following basal sampling, either vehicle (10% DMSO, 10% cremophor/saline), Antide (1.0 μg) or compound 11 (10 mg/kg) was administered intravenously. Blood samples were drawn 10, 60, 90, 120, 180, 240 minutes after injections. Blood was centrifuged, serum collected and stored in −70° freezer until assayed. Serum samples were analyzed using DSL-4600 ACTIVE LH coated-tube immunoradiometric assay kit from Diagnostic Systems Laboratories, Inc.
Surgical removal of the gonads removes circulating testosterone and eliminates the negative feedback of testosterone on the hypothalamus. […] This model seems suitable for evaluating small molecule GnRH antagonists.
Male Sprague-Dawley ([…]) rats were castrated via the scrotal approach under halothane anesthesia. Animals were allowed 14 days post operative recovery prior to study. Thirteen days following castration, animals were anesthetized with halothane and instrumented with indwelling jugular vein cannula. Details of the cannulation procedure have been described previously {Harms and Ojeda, 1974)}. On study day, animals were allowed to acclimate to the procedure room while residing in their home cage. Basal blood samples were drawn from all animals. Immediately following basal sampling, vehicle or test compounds were administered by various routes. The routes of administration employed were intravenous (iv), intramuscular (im), intraperitoneal (ip), subcutaneous (sc) and oral (po). Blood samples were drawn into heparin containing tubes at multiple time points post treatment. Blood was centrifuged immediately, plasma collected and stored in −20° freezer until assayed. Plasma samples were analyzed using DSL-4600 ACTIVE LH coated-tube immunoradiometric assay kit from Diagnostic Systems Laboratories, Inc.
Formulation #1 (denoted with superscript 1): 10% DMSO, 10% Cremophor EL and 80% physiological saline.
Formulation #2 (denoted with superscript 2): 10% Cremophor EL and 90% physiological saline.

Another data set addresses GLP-1 (Homo sapiens, UniProt P43220). Briefly: Selectivity: GLP-1.
A further data set has as its target CYP3A4 Cytochrome P450 (Homo sapiens, UniProt P08684).
Another data set deals with ET-A (Homo sapiens, UniProt P25101). Briefly: biochemical.
The target of a further data set is H3 Histamine (Homo sapiens, UniProt Q9Y5N1). As to the kind of experiment: Selectivity: H3 Histamine.
Another data set deals with MAO-B (Homo sapiens, UniProt P27338). As to the kind of experiment: Selectivity: MAO-B.
A short description of data set [2]: Metabolism rate, pmol/min/mg at 1 μM, dog. The settings on record: 1 μM compound. It is filed as in vitro ADME.
Data set [3] concerns testosterone levels in intact male rats. Briefly: Intact male rat, testosterone suppression. It counts as in vivo. The source says: Testosterone is a hormone regulated by the hypothalamic-pituitary-gonadal axis. GnRH is secreted in pulses from the hypothalamus and stimulates the anterior pituitary gland to release gonadotropic hormones LH and FSH. Testosterone is produced when the testes are stimulated by LH. The quantity of testosterone secreted increases approximately in direct proportion to the amount of LH available (Guyton, 1986).
Male Sprague-Dawley (250-275 g) rats were single-housed and allowed to acclimate for 1 week prior to study. On study day animals were dosed with vehicle or test compound by various routes of administration, including ip, sc, or po. Blood samples were obtained via cardiac puncture under halothane anesthesia from individual animals at predetermined time points post treatment. Blood samples were drawn into heparin containing tubes. Blood was centrifuged immediately, plasma collected and stored in −20° freezer until assayed. Plasma samples were analyzed using DSL-4000 ACTIVE Testosterone coated-tube raduioimmunoassay kit from Diagnostic Systems Laboratories, Inc.
Male Sprague-Dawley (250-275 g) rats were single-housed and allowed to acclimate for 1 week prior to study. We developed a technique to allow for repeated sampling from the jugular vein by using microrenathane (MRE) catheters implanted 7 days prior to study. Details of the surgical procedure have been described previously {Harms and Ojeda, 1974}. On study day, animals were allowed to acclimate to the procedure room while residing in their home cage. Basal blood samples were drawn from all animals. Immediately following basal sampling, vehicle or test compounds were administered by various routes. The routes of administration employed were intravenous (iv), intramuscular (im), and oral (po). Blood samples were drawn into heparin containing tubes at multiple time points post treatment. Blood was centrifuged immediately, plasma collected and stored in −20° freezer until assayed. Plasma samples were analyzed using DSL-4000 ACTIVE Testosterone coated-tube raduioimmunoassay kit from Diagnostic Systems Laboratories, Inc.
Male Sprague-Dawley (250-275 g) rats were double-housed and allowed to acclimate for 1 week prior to study. Daily vehicle treatments were administered either, im, sc, or po between 8:00 and 9:00 am for seven days. On day 8 between 8:00 and 9:00 am, blood samples were drawn via cardiac puncture under halothane anesthesia. The procedure was complete in 45-60 seconds. Over the next 7 days one groups of animals continued to receive vehicle treatments while another group of animals received no treatment. Samples were collected as described above following the 7th day of this treatment regimen. Testosterone levels were not different between vehicle treated animals and untreated animals.
Daily im dosing of Compound 134 (100 mg/kg) or vehicle was performed between 8:00 and 9:00 am for seven days. Samples were collected as described above following the 7th day of treatment.
All blood samples were collected in heparin containing tubes. Blood was centrifuged immediately, plasma collected and stored in −20° freezer until assayed the next day. Plasma samples were analyzed using DSL-4000 ACTIVE Testosterone coated-tube raduioimmunoassay kit from Diagnostic Systems Laboratories, Inc.

Chain of GLP-1 (P43220 24-463): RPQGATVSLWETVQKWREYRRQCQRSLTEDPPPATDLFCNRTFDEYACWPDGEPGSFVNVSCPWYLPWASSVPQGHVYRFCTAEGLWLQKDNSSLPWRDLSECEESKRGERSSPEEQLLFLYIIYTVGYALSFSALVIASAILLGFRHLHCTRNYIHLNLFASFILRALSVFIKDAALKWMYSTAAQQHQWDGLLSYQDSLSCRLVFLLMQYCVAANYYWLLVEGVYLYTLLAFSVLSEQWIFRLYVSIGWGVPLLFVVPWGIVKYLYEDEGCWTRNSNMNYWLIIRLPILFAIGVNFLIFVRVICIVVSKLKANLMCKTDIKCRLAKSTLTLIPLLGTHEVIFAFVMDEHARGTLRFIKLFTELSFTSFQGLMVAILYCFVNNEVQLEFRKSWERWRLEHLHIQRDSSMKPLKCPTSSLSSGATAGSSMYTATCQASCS
Chain of H3 Histamine (Q9Y5N1 whole entry): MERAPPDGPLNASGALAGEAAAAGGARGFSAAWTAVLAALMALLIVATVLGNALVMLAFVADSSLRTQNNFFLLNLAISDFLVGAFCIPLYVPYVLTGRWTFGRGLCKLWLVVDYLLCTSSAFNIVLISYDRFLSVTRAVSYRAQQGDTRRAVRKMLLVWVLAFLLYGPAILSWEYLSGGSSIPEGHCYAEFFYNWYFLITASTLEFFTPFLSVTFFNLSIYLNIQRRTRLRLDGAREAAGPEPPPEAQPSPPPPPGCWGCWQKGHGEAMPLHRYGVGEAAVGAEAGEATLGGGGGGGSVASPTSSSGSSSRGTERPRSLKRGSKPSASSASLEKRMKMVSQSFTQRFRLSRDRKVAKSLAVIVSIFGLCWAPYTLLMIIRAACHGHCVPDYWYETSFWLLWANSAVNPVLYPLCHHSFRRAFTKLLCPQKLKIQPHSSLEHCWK
Chain of MAO-B (P27338 whole entry, species assumed): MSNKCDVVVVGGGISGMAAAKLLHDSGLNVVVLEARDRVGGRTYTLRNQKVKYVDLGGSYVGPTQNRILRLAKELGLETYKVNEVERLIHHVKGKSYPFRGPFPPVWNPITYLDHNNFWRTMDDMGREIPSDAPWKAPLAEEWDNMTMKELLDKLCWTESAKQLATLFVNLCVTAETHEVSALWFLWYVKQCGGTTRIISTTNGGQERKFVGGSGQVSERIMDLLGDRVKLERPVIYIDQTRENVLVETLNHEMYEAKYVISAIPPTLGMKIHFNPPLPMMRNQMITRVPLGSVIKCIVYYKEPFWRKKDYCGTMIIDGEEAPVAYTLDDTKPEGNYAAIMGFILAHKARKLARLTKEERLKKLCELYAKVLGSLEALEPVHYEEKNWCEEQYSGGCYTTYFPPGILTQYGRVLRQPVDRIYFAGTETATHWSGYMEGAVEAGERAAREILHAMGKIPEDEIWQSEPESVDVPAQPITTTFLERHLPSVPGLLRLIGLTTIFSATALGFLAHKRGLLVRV
Chain of ET-A (P25101 21-427): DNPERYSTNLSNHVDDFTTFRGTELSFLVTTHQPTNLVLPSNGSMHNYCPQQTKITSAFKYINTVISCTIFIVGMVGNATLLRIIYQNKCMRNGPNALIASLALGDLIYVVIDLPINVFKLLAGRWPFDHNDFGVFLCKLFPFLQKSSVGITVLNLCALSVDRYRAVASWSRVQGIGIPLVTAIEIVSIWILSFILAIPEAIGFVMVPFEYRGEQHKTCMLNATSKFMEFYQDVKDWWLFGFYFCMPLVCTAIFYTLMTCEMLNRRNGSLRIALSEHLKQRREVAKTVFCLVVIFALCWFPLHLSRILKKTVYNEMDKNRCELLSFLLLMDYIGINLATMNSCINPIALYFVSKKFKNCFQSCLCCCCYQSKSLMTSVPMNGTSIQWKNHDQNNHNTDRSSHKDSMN
Chain of CYP3A4 Cytochrome P450 (P08684 whole entry): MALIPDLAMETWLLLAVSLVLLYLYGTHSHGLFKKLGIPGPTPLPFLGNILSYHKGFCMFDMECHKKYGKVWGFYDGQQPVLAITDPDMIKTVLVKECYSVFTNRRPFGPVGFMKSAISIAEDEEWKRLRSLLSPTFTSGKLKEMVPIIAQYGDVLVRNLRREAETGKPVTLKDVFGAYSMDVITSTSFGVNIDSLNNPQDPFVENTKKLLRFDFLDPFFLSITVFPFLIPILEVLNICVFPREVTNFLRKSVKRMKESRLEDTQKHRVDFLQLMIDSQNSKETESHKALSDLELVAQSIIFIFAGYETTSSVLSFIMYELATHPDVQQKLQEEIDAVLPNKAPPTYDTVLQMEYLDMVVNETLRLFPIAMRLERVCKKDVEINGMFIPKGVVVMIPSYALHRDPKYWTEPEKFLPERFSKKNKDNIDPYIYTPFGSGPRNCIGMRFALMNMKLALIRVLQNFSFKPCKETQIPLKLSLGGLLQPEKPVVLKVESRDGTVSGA

For the molecule `CC(=O)N[C@H](Cc1ccc2ccccc2c1)C(=O)N[C@H](Cc1ccc(Cl)cc1)C(=O)N[C@H](Cc1cccnc1)C(=O)N[C@@H](CO)C(=O)N[C@@H](CCCCNC(=O)c1cccnc1)C(=O)N[C@H](CCCCNC(=O)c1cccnc1)C(=O)N[C@@H](CC(C)C)C(=O)N[C@@H](CCCCNC(C)C)C(=O)N1CCC[C@H]1C(=O)N[C@H](C)C(N)=O` [Antide, reference compound] (Ac-[d2Nal][dPhe(4-Cl)][d3Pal]SK(Nicotinoyl)[dK](Nicotinoyl)L[Lys(iPr)]P[dA]-NH2), in data set [1] (Antide 2.0 and 20 ug, sc), the “LH in CX rats” value was “reduces LH levels; also recorded: suppresses LH”. Besides, the “LH in castrated rat model” value in data set [1] (intravenous, Antide 1.0 μg, compound 11 10 mg/kg) is given as “reduces LH”.
As for `Cc1cc2c(cc1Cc1ccc(C(=O)NCC3CCCC(CNc4nccc(NCC5CCCO5)n4)C3)o1)C(C)(C)CCC2(C)C` (stereo not drawn) [Compound 11], the half-inhibitory concentration (IC50) (as a rule, the concentration at which inhibition is half-maximal) against GLP-1 was greater than 10 µM.
On to `Cc1cnc(CNC(=O)c2ccc(Cc3cc4c(cc3C)C(C)(C)CCC4(C)C)o2)cn1` [Compound 13], for which the IC50 against GLP-1 is greater than 10 µM.
Turning to `COc1cccc(OC)c1NC(=O)c1ccc(Cc2cc3c(cc2C)C(C)(C)CCC3(C)C)o1` [Compound 20], the concentration for half-maximal inhibition (IC50) on CYP3A4 Cytochrome P450 was 1.7 µM; against GLP-1, greater than 10 µM. Also, the inhibition constant (Ki) (in general, a dissociation constant, usually derived from enzyme kinetics or from competition with a known ligand) is greater than 1 µM at ET-A, greater than 1 µM at H3 Histamine, greater than 1 µM on MAO-B and greater than 10 µM at GLP-1.
With `Cc1cc2c(cc1Cc1ccc(C(=O)NCc3nc4ccccc4[nH]3)o1)C(C)(C)CCC2(C)C` [Compound 48], in data set [1] (10 mg/kg iv), the “% Max LH Suppression” value stood at 75%, the “time of % Max LH Suppression” value is 0.5 h and the “≧50% Suppression Duration” value is less than 1 h. In data set [1] (20 mg/kg iv), the “% Max LH Suppression” value was found to be 51%, the “time of % Max LH Suppression” value is 1 h and the “≧50% Suppression Duration” value was found to be 1 h. In addition, the concentration for half-maximal inhibition (IC50) against GLP-1 was greater than 10 µM.
For the molecule `Cc1cc2c(cc1Cc1ccc(C(=O)NCc3cccc(CNc4ccnc(NC[C@@H]5CCCO5)n4)c3)o1)C(C)(C)CCC2(C)C` [Compound 136], in data set [2], the “Dog pmol/min/mg 1 μM” value is on record as 3071 pmol/min/mg. For the same molecule, the “% Max LH Suppression” value came to 48% in data set [1] (5.0 mg/kg iv), 74% in data set [1] (10 mg/kg iv) and 98% in data set [1] (20 mg/kg iv). In addition, the “time of % Max LH Suppression” value was found to be 1 h in data set [1] (5.0 mg/kg iv), 2 h in data set [1] (10 mg/kg iv) and 4 h in data set [1] (20 mg/kg iv). Besides, the “≧50% Suppression Duration” value in data set [1] (5.0 mg/kg iv) was 1.0 h; in data set [1] (10 mg/kg iv) it was 6 h; in data set [1] (20 mg/kg iv) it was “≧6 hr”. Also, the “Range of Plasma Conc.” value in data set [1] (20 mg/kg po) stood at 0.29 µM; in data set [1] (40 mg/kg po), 0.72 µM; in data set [3] (20 mg/kg ip) it was 0.4 µM; in data set [3] (40 mg/kg po), 0.34 µM. Further, the “% Testosterone suppression” value in data set [3] (20 mg/kg ip) came out at 72%; in data set [3] (40 mg/kg po) it was 46%. The “Suppression Duration” value stood at 6 h in data set [3] (20 mg/kg ip) and 4 h in data set [3] (40 mg/kg po). In addition, the results for the “time of % Testosterone suppression” value in data set [3] (20 mg/kg ip) and in data set [3] (40 mg/kg po) were 6 h and 4 h, respectively. Besides, the testosterone levels result in data set [3] (6 hours post ip injection, vs vehicle, p<0.05) is recorded as “suppressed testosterone levels”.
With `COc1cc(OC)c(NC(=O)c2ccc(Cc3cc4c(cc3OC)C(C)(C)CCC4(C)C)o2)c(OC)c1` [Compound 169], in data set [2], the “Dog pmol/min/mg 1 μM” value is given as 2301 pmol/min/mg.
Take `COc1cc(OC)c(NC(=O)c2ccc(Cc3cc4c(cc3C)C(C)(C)CCC4(C)C)o2)c(OC)c1C#N` [Compound 177]: in data set [2], the “Dog pmol/min/mg 1 μM” value was found to be 2456 pmol/min/mg.
Regarding `COc1cc(OC)c(NC(=O)c2ccc(Cc3cc4c(cc3C)CCCC4(C)C)o2)c(OC)c1` [Compound 183], the “% Max LH Suppression” value is reported as 58% in data set [1] (10 mg/kg im), 92% in data set [1] (10 mg/kg iv) and 60% in data set [1] (50 mg/kg po). The “time of % Max LH Suppression” value came out at 2 h in data set [1] (10 mg/kg im), 1 h in data set [1] (10 mg/kg iv) and 2 h in data set [1] (50 mg/kg po). The “≧50% Suppression Duration” value in data set [1] (10 mg/kg iv) and in data set [1] (50 mg/kg po) was 8 h each time.
